{"source": "patent US20030171408A1", "about": "“Therapeutic method of delivering a medicament to avoid irritating effects on membranes of user” (priority 2002, published 2003)", "key": {"[1]": {"conditions": "metered nasal spray 0.4 mg nicotine equivalent", "description": "A subject who was an addicted smoker was provided a metered nasal spray delivering 0.4 mg of nicotine equivalent in form of nicotine diacesulfamate. The nicotine salt was dissolved in water without any other additive ingredients."}, "[2]": {"conditions": "powder nasal spray, encapsulated in starch microspheres", "description": "A subject is administered nicotine by means of a powder nasal spray. The nicotine is prepared as the diacesulfamate and is encapsulated in starch microspheres."}, "[3]": {"conditions": "oral inhaler, water solution", "description": "A subject is administered nicotine by means of an oral inhaler. The nicotine is prepared as the diacesulfamate and is prepared in water solution."}, "[4]": {"conditions": "cited from earlier work"}, "[5]": {"conditions": "nasal, single doses of one mg, in man; cited from earlier work"}}}
{"smiles": "CC1=CC(=O)NS(=O)(=O)O1.CC1=CC(=O)NS(=O)(=O)O1.CN1CCC[C@H]1c1cccnc1", "note": "[nicotine diacesulfamate]", "values": [{"measurement": "relief from desire to smoke", "setting": "[1]; addicted smoker, dissolved in water, once in each nostril", "value": "relief from desire to smoke within two minutes"}, {"measurement": "taste and feelings in the nostril", "setting": "[1]; in water", "value": "not unpleasant, but distinctive"}, {"measurement": "irritation to nasal mucosa, throat or lungs", "setting": "[1]; in water, once in each nostril", "value": "No report was made of any irritation to nasal mucosa, nor to the throat or lungs"}, {"measurement": "burning feeling on administration", "setting": "[2]", "value": "No burning feeling is noted"}, {"measurement": "relief from cravings to smoke", "setting": "[2]", "value": "relief from the cravings to smoke soon after use"}, {"measurement": "burning feeling in buccal area, throat or lungs", "setting": "[3]", "value": "No burning feeling is noted"}, {"measurement": "relief from craving to smoke", "setting": "[3]", "value": "relief from craving to smoke soon after use"}]}
{"smiles": "CC1=CC(=O)NS(=O)(=O)O1", "note": "[Acesulfamic acid, 6-Methyl-1,2,3-Oxathiazin-4(3H)1,2,2-dioxide H]", "values": [{"measurement": "solubility in alcohol and non-polar solvents", "setting": "[4]; alcohol and non-polar solvents", "value": "soluble"}, {"measurement": "solubility in water", "setting": "[4]; water", "value": "only sparingly soluble"}]}
{"smiles": "CN1CCCC1c1cccnc1", "note": "(stereo not shown) [nicotine]", "values": [{"measurement": "time to maximum concentration", "setting": "[5]", "value": "≤ 10", "unit": "min"}]}
